31 compounds from patent publication US6855710B2, “Substituted indolines with an inhibitory effect on various kinases and complexes of CDKs” (Boehringer Ingelheim Pharma KG, priority 1998, dated 2005) can be followed below.

Regarding `CN(C)C(=O)CN(c1ccc(N/C(=C2\C(=O)Nc3ccc([N+](=O)[O-])cc32)c2ccccc2)cc1)S(=O)(=O)c1ccccc1` [Example 209, (Z)-3-{1-[4-(N-dimethylaminocarbonylmethyl-N-phenylsulphonyl-amino)-phenylamino]-1-phenyl-methylidene}-5-nitro-2-indolinone], the melting point was in the range of 160 to 162 °C. Consider `CN(C)CCCN(C)S(=O)(=O)c1ccc(N/C(=C2\C(=O)Nc3ccc([N+](=O)[O-])cc32)c2ccccc2)cc1` [Example 404, (Z)-3-{1-[4-(N-(3-dimethylaminopropyl)-N-methyl-aminosulphonyl)-phenylamino]-1-phenyl-methylidene}-5-nitro-2-indolinone], for which the melting point was 269 to 270 °C (dec.). Then `CN(c1ccc(N/C(=C2\C(=O)Nc3ccccc32)c2ccccc2)cc1)S(=O)(=O)CCN1CCCCC1` [Example 383, (Z)-3-{1-[4-(N-(2-piperidinoethylsulphonyl)-N-methyl-amino)-phenylamino]-1-phenyl-methylidene}-2-indolinone], with 121 to 123 °C.

`O=C1Nc2ccc([N+](=O)[O-])cc2/C1=C(/Nc1ccc(CNCCO)cc1)c1ccccc1` [Example 239, (Z)-3-{1-[4-(2-hydroxy-ethylaminomethyl)-phenylamino]-1-phenyl-methylidene}-5-nitro-2-indolinone] yielded a melting point of 196 to 198 °C. The value for `C[C@H](NC(=O)OC(C)(C)C)c1ccc(N/C(=C2\C(=O)Nc3ccc([N+](=O)[O-])cc32)c2ccccc2)cc1` [Example 123, (Z,S)-3-{1-[4-(1-tert.butoxycarbonylamino-ethyl)-phenylamino]-1-phenyl-methylidene}-5-nitro-2-indolinone] was 247 to 249 °C (dec.). Consider `COC(=O)c1ccccc1N/C(=C1\C(=O)Nc2ccccc21)c1ccccc1` [Example 7, (Z)-3-[1-(2-methoxycarbonyl-phenylamino)-1-phenyl-methylidene]-2-indolinone], for which the melting point was 241 to 244 °C. Then `CN(C)CCN(C)C(=O)CN(c1ccc(N/C(=C2\C(=O)Nc3ccc([N+](=O)[O-])cc32)c2ccccc2)cc1)S(C)(=O)=O` [Example 294, (Z)-3-{1-[4-(N—((N-(2-dimethylaminoethyl)-N-methyl-amino)-carbonylmethyl)-N-methylsulphonyl-amino)-phenylamino]-1-phenyl-methylidene}-5-nitro-2-indolinone], with 138 to 140 °C. Regarding `Br.COCCNCCc1ccc(N/C(=C2\C(=O)Nc3ccc([N+](=O)[O-])cc32)c2ccccc2)cc1` [Example 257, (Z)-3-{1-[4-(2-(2-methoxyethylamino)-ethyl)-phenylamino]-1-phenyl-methylidene}-5-nitro-2-indolinone-hydrobromide], the melting point is 297 to 299 °C. Compound `CN(c1ccc(N/C(=C2\C(=O)Nc3ccccc32)c2ccccc2)cc1)S(=O)(=O)CCN1CCOCC1` [Example 384, (Z)-3-{1-[4-(N-(2-morpholinoethylsulphonyl)-N-methyl-amino)-phenylamino]-1-phenyl-methylidene}-2-indolinone] yielded a melting point of 115 to 117 °C. `CC(=O)N(CC(=O)N(C)C)c1ccc(N/C(=C2\C(=O)Nc3ccccc32)c2ccccc2)cc1` [Example 355, (Z)-3-{1-[4-(N-dimethylaminocarbonylmethyl-N-acetyl-amino)-phenylamino]-1-phenyl-methylidene}-2-indolinone]: the melting point fell in the range of 264 to 268 °C.

For the compound `CN(C)C(=O)COc1ccc(N/C(=C2\C(=O)Nc3ccccc32)c2ccccc2)cc1` [Example 291, (Z)-3-{1-[4-(dimethylaminocarbonylmethyloxy)-phenylamino]-1-phenyl-methylidene}-2-indolinone], the melting point lay in the range of 224 to 226 °C. For `CS(=O)(=O)N(CC(N)=O)c1cccc(N/C(=C2\C(=O)Nc3ccccc32)c2ccccc2)c1` [Example 319, (Z)-3-{1-[3-(N-aminocarbonylmethyl-N-methylsulphonyl-amino)-phenylamino]-1-phenyl-methylidene}-2-indolinone], the melting point is 227 to 230 °C. The value for `CCOC(=O)CNCc1cccc(N/C(=C2\C(=O)Nc3ccc([N+](=O)[O-])cc32)c2ccccc2)c1` [Example 111, (Z)-3-[1-(3-ethoxycarbonylmethylaminomethyl-phenylamino)-1-phenyl-methylidene]-5-nitro-2-indolinone] was 130 to 133 °C; that for `CN(C)C(=O)CCNCc1cccc(N/C(=C2\C(=O)Nc3ccc([N+](=O)[O-])cc32)c2ccccc2)c1` [Example 253, (Z)-3-{1-[3-(2-dimethylaminocarbonyl-ethylaminomethyl)-phenylamino]-1-phenyl-methylidene}-5-nitro-2-indolinone] was 177 to 179 °C.

Regarding `CCOC(=O)CN(C)S(=O)(=O)c1ccc(N/C(=C2\C(=O)Nc3ccc([N+](=O)[O-])cc32)c2ccccc2)cc1` [Example 413, (Z)-3-{1-[4-(N-ethoxycarbonylmethyl-N-methyl-aminosulphonyl)-phenylamino]-1-phenyl-methylidene}-5-nitro-2-indolinone], the melting point fell in the range of 206 to 207 °C.

With `Cc1ccc(/C(Nc2ccc(CN(C)C)cc2)=C2/C(=O)Nc3ccccc32)cc1` [Example 211, (Z)-3-[1-(4-dimethylaminomethyl-phenylamino)-1-(p-tolyl)-methylidene]-2-indolinone], the melting point lay in the range of 208 to 209 °C. Then `CC(C)S(=O)(=O)N(CCN(C)C)c1ccc(N/C(=C2\C(=O)Nc3ccccc32)c2ccccc2)cc1` [Example 309, (Z)-3-{1-[4-(N-(2-dimethylaminoethyl)-N-isopropylsulphonyl-amino)-phenylamino]-1-phenyl-methylidene}-2-indolinone], with 247 °C; and `CCN(CC)CC(=O)N(C)c1ccc(N/C(=C2\C(=O)Nc3ccccc32)c2ccccc2)cc1` [Example 49, (Z)-3-{1-[4-(N-Diethylaminomethylcarbonyl-N-methyl-amino)-phenylamino]-1-phenyl-methylidene}-2-indolinone], with 242 to 247 °C; and `CN(C)C(=O)c1cccc(N/C(=C2\C(=O)Nc3ccccc32)c2ccccc2)c1` [Example 22, (Z)-3-[1-(3-dimethylaminocarbonyl-phenylamino)-1-phenyl-methylidene]-2-indolinone], with 261 to 263 °C. `CCOC(=O)CCCN(c1ccc(N/C(=C2\C(=O)Nc3ccccc32)c2ccccc2)cc1)S(C)(=O)=O` [Example 195, (Z)-3-{1-[4-(N-(3-ethoxycarbonyl-propyl)-N-methylsulphonyl-amino)-phenylamino]-1-phenyl-methylidene}-2-indolinone] showed a melting point of 265 to 268 °C. Then `CN(Cc1ccc(N/C(=C2\C(=O)Nc3ccc([N+](=O)[O-])cc32)c2ccccc2)cc1)c1ccccn1` [Example 235, (Z)-3-{1-[4-(N-methyl-N-(2-pyridyl)-aminomethyl)-phenylamino]-1-phenyl-methylidene}-5-nitro-2-indolinone], with 213 to 216 °C; and `CC(C)(C)OC(=O)Nc1ccc(N/C(=C2\C(=O)Nc3ccccc32)c2ccccc2)cc1` [Example 28, (Z)-3-[1-(4-tert.butoxycarbonylamino-phenylamino)-1-phenyl-methylidene]-2-indolinone], with 244 to 246 °C. Compound `CCS(=O)(=O)N(CC(=O)O)c1ccc(N/C(=C2\C(=O)Nc3ccccc32)c2ccccc2)cc1` [Example 298, (Z)-3-{1-[4-(N-carboxymethyl-N-ethylsulphonyl-amino)-phenylamino]-1-phenyl-methylidene}-2-indolinone] gave a melting point of 240 to 242 °C. `CN(C(=O)CN1CCN(Cc2ccccc2)CC1)c1ccc(N/C(=C2\C(=O)Nc3ccc([N+](=O)[O-])cc32)c2ccccc2)cc1` [Example 104, (Z)-3-{1-[4-(N-(4-benzylpiperazinomethylcarbonyl)-N-methyl-amino)-phenylamino]-1-phenyl-methylidene}-5-nitro-2-indolinone] came in with a melting point of 201 to 203 °C.

The compound `CN(C)CC(=O)N(C)c1ccc(N/C(=C2\C(=O)Nc3ccccc32)c2ccc(CN)cc2)cc1` [Example 430, (Z)-3-{1-[4-(N-dimethylaminomethylcarbonyl-N-methyl-amino)-phenylamino]-1-(4-aminomethyl-phenyl)-methylidene}-2-indolinone] yielded a melting point of 188 to 190 °C. `CC1(O)CCN(Cc2ccc(N/C(=C3\C(=O)Nc4ccc([N+](=O)[O-])cc43)c3ccccc3)cc2)CC1` [Example 251, (Z)-3-{1-[4-(4-hydroxy-4-methyl-piperidinomethyl)-phenylamino]-1-phenyl-methylidene}-5-nitro-2-indolinone]: the melting point lay in the range of 186 to 187 °C. In turn, `Cc1ccc(S(=O)(=O)N(CCN(C)C)c2ccc(N/C(=C3\C(=O)Nc4ccccc43)c3ccccc3)cc2)cc1` [Example 454, (Z)-3-[1-(4-(N-(2-dimethylaminoethyl)-N-(p-tolylsulphonyl)-amino)-phenylamino)-1-phenyl-methylidene]-2-indolinone] gave a melting point of 213 to 215 °C. The compound `CN(C)C(=O)CCNCc1ccc(N/C(=C2\C(=O)Nc3ccc([N+](=O)[O-])cc32)c2ccccc2)cc1` [Example 243, (Z)-3-{1-[4-(2-dimethylaminocarbonyl-ethylaminomethyl)-phenylamino]-1-phenyl-methylidene}-5-nitro-2-indolinone] yielded a melting point of 215 to 217 °C. The value for `CN(C)CCS(=O)(=O)Nc1ccc(N/C(=C2\C(=O)Nc3ccccc32)c2ccccc2)cc1` [Example 379, (Z)-3-{1-[4-(2-dimethylamino-ethylsulphonylamino)-phenylamino]-1-phenyl-methylidene}-2-indolinone] was 214 to 216 °C; that for `CN(C)C(=N)c1cccc(N/C(=C2\C(=O)Nc3ccccc32)c2ccccc2)c1` [Example 66, (Z)-3-{1-[3-(N,N-dimethylcarbamimidoyl)-phenylamino)-1-phenyl-methylidene}-2-indolinone] was 238 to 242 °C. The value for `O=C1Nc2ccccc2/C1=C(/Nc1ccc(NCCN2CCOCC2)cc1)c1ccccc1` [Example 346, (Z)-3-{1-[4-(2-morpholinoethylamino)-phenylamino]-1-phenyl-methylidene}-2-indolinone] was 257 °C.
